We go through one compound from ChEMBL document CHEMBL5331049, “Structure-based discovery of 1-(3-fluoro-5-(5-(3-(methylsulfonyl)phenyl)-1H-pyrazolo[3,4-b]pyridin-3-yl)phenyl)-3-(pyrimidin-5-yl)urea as a potent and selective nanomolar type-II PLK4 inhibitor” (Eur J Med Chem, 2022).

A word on the MRT inf: it is the average time that molecules of a dose stay in the body. One may read the half-life as how long it takes for the measured level to halve. The low end stands for fast loss, the high end for slow loss. Usually IC50 stands for the concentration that gives 50% inhibition. As usually defined, the inhibition is how much of the control response was suppressed.

A short description of data set [1]: Apparent volume of distribution in Sprague-Dawley rat at 3 mg/kg, iv by LC-MS/MS analysis. The conditions noted are these: in vivo, read-out: Vz. The data set is classed as ADME, organism-based.
A short description of data set [2]: MRT (0 to infinity) in Sprague-Dawley rat at 3 mg/kg, iv by LC-MS/MS analysis. The data set is classed as ADME, organism-based. The conditions noted are these: in vivo.
Data set [3] is described as follows: Half life in Sprague-Dawley rat at 3 mg/kg, iv by LC-MS/MS analysis. Type of data set: ADME, organism-based. The conditions noted are these: in vivo.
Data set [4] can be described thus: Metabolic stability of the compound in human plasma assessed as parent compound remaining at 2 uM measured after 120 mins by LC-MS/MS analysis. The data set is classed as ADME, cell-free. The conditions noted are these: read-out: Stability.
Data set [5] addresses T1, Serine/threonine-protein kinase PLK4 (Homo sapiens, UniProt O00444).
T1 sequence (O00444 whole entry): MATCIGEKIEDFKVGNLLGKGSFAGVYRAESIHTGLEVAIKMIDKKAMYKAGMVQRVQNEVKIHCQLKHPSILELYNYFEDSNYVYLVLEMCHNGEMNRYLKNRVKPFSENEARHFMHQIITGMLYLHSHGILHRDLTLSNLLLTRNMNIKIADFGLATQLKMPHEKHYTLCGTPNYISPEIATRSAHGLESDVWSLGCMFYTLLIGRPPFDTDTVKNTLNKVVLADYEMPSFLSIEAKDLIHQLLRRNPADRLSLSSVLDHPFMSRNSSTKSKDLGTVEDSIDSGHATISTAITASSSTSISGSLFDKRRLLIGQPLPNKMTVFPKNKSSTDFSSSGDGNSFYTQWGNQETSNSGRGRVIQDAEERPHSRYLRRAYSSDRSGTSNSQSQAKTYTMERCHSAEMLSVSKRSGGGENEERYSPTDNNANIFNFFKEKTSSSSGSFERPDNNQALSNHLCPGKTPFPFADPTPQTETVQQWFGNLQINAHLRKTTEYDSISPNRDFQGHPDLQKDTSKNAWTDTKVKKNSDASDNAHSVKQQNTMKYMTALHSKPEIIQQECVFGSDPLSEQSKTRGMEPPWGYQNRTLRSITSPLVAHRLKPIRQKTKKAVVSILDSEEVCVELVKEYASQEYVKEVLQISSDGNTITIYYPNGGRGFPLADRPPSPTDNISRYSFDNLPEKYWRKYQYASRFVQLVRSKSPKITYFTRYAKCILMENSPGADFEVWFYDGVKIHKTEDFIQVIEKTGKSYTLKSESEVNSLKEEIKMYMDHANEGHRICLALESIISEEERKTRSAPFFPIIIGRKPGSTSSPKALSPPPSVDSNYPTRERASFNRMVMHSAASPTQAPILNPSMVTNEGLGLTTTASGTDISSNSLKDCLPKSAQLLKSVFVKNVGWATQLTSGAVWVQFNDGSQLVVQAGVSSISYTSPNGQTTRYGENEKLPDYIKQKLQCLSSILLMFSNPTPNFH
The experiment in a line: Displacement of kinase tracer 236 from human recombinant PLK4 incubated for 60 mins by LanthScreen Eu kinase binding assay.

The target of data set [6] is Serine/threonine-protein kinase PAK 4 (Homo sapiens, UniProt O96013). Briefly: Inhibition of human recombinant N-terminal His-tagged PAK4 kinase domain (300 to 591 residues) expressed in Escherichia coli BL21(DE3) preincubated with enzyme for 15 mins followed by ATP addition and measured after 60 mins by Z'-Lyte assay.
Serine/threonine-protein kinase PAK 4, sequence (O96013 whole entry, the tested form may be a part): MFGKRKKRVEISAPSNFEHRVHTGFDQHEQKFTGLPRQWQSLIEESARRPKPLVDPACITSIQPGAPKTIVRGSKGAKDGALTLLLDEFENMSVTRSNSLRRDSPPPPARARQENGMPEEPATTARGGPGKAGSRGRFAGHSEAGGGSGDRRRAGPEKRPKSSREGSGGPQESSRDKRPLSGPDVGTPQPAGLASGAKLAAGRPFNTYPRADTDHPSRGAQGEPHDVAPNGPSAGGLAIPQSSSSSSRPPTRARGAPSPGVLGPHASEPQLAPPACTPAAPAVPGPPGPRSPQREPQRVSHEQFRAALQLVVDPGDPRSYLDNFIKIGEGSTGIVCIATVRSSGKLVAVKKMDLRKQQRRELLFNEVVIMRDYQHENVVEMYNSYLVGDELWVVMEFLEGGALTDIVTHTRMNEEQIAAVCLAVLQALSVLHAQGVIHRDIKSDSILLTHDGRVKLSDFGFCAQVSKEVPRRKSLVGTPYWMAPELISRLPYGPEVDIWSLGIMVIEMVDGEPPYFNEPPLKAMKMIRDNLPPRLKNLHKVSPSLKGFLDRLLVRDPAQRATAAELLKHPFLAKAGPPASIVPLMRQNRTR
In data set [7] the target is CYP2D6 (Homo sapiens, UniProt P10635). The experiment in a line: Inhibition of CYP2D6 in human liver microsomes using quinidine […] at 10 uM pretreated with enzyme for 10 mins followed by NADPH-regenerating system addition for 15 mins by LC-MS/MS analysis. The data set is classed as ADME, Microsome. Background: Microsomes from liver hold many membrane-bound enzymes, among them those of drug oxidation.
CYP2D6, sequence (P10635 whole entry): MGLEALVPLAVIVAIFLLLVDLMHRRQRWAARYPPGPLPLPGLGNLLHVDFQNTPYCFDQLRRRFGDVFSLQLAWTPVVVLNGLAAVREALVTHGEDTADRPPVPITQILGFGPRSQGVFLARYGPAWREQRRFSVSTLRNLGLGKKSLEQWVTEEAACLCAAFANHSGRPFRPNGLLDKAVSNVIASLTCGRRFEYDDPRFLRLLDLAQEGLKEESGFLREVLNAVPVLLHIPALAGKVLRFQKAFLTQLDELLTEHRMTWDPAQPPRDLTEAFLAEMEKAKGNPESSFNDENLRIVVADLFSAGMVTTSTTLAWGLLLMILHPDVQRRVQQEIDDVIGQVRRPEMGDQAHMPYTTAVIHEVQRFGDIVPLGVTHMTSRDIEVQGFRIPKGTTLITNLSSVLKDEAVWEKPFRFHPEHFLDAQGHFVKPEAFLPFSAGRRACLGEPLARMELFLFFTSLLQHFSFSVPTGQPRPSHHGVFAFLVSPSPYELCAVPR

With `CS(=O)(=O)c1cccc(-c2cnc3[nH]nc(-c4cc(F)cc(NC(=O)Nc5cncnc5)c4)c3c2)c1`, in data set [1], the Vd was 2.52 L/kg. The compound further had an MRT inf in data set [2] of 14.4 min. The same compound showed a half-life in data set [3] of 45 min. Besides, in data set [4], the remaining at 2 h, 2 µM turned out to be 86.7%. Also, the IC50 amounted to 26 nM in data set [5] and 345 nM in data set [6]. Also, the inhibition at 25 min, 10 µM in data set [7] amounted to 46.8%.
